{"source": "patent US9738634B2", "about": "“Heterocyclic amide compound and herbicide” (SYNGENTA PARTICIPATIONS AG, priority 2013, dated 2017)", "format_in_all_cases": "in vivo", "conditions_in_all_cases": "treatment dosage 320 g/ha", "key": {"rapeseed [1]": {"test_system": "rapeseed", "test": "Test Example 3: soil treatment, effect on crop; g: rapeseed", "outline": "(§1)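 Crop and weed responses were judged three weeks after a uniform surface spray of the water-diluted emulsion at the given g/ha rate. Seeds sat beneath about 1.5 cm of sterilized diluvial soil, and boxes stood in a greenhouse at 25 to 30° C.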"}, "oval-leafed pondweed [2]": {"test_system": "oval-leafed pondweed", "test": "Test Example 2: weedkilling efficacy, growth period weed treatment in the submerged state; C: oval-leafed pondweed", "outline": "(§2)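 Seedlings at 1-2 leaves in 4 cm-deep submerged alluvial soil received emulsion formulations on the water surface, dosed per hectare; effects were judged 3 weeks on.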"}, "black-grass [3]": {"test_system": "black-grass", "test": "Test Example 4: weedkilling efficacy by foliar treatment; H: black-grass", "outline": "(§3)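 Seeds are spot-sown into sterilized diluvial soil and covered with about 1.5 cm of soil. After 14 days' greenhouse growth at 25 to 30° C, plants are sprayed on stems and leaves with diluted emulsion at the stated g/ha rate, then scored at 3 weeks.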"}, "green foxtail [4]": {"test_system": "green foxtail", "test": "Test Example 3: weedkilling efficacy through soil treatment; E: green foxtail", "outline": "as §1"}, "common wind-grass [5]": {"test_system": "common wind-grass", "test": "Test Example 4: weedkilling efficacy by foliar treatment; J: common wind-grass", "outline": "as §3"}, "corn [6]": {"test_system": "corn", "test": "Test Example 3: soil treatment, effect on crop; c: corn", "outline": "as §1"}, "directly sown rice [7]": {"test_system": "directly sown rice", "test": "Test Example 3: soil treatment, effect on crop; b: directly sown rice", "outline": "as §1"}, "beet [8]": {"test_system": "beet", "test": "Test Example 4: foliar treatment, effect on crop; f: beet", "outline": "as §3"}, "crabgrass [9]": {"test_system": "crabgrass", "test": "Test Example 3: weedkilling efficacy through soil treatment; D: crabgrass", "outline": "as §1"}, "wild oat [10]": {"test_system": "wild oat", "test": "Test Example 3: weedkilling efficacy through soil treatment; G: wild oat", "outline": "as §1"}, "directly sown rice [11]": {"test_system": "directly sown rice", "test": "Test Example 4: foliar treatment, effect on crop; b: directly sown rice", "outline": "as §3"}, "crabgrass [12]": {"test_system": "crabgrass", "test": "Test Example 4: weedkilling efficacy by foliar treatment; D: crabgrass", "outline": "as §3"}, "fig-leafed goosefoot [13]": {"test_system": "fig-leafed goosefoot", "test": "Test Example 4: weedkilling efficacy by foliar treatment; M: fig-leafed goosefoot", "outline": "as §3"}, "barnyard grass [14]": {"test_system": "barnyard grass", "test": "Test Example 4: weedkilling efficacy by foliar treatment; F: barnyard grass", "outline": "as §3"}, "catchweed [15]": {"test_system": "catchweed", "test": "Test Example 3: weedkilling efficacy through soil treatment; O: catchweed", "outline": "as §1"}, "Indian mallow [16]": {"test_system": "Indian mallow", "test": "Test Example 4: weedkilling efficacy by foliar treatment; K: Indian mallow", "outline": "as §3"}, "corn [17]": {"test_system": "corn", "test": "Test Example 4: foliar treatment, effect on crop; c: corn", "outline": "as §3"}, "soybean [18]": {"test_system": "soybean", "test": "Test Example 4: foliar treatment, effect on crop; d: soybean", "outline": "as §3"}, "beet [19]": {"test_system": "beet", "test": "Test Example 3: soil treatment, effect on crop; f: beet", "outline": "as §1"}, "wild oat [20]": {"test_system": "wild oat", "test": "Test Example 4: weedkilling efficacy by foliar treatment; G: wild oat", "outline": "as §3"}, "redroot pigweed [21]": {"test_system": "redroot pigweed", "test": "Test Example 4: weedkilling efficacy by foliar treatment; L: redroot pigweed", "outline": "as §3"}, "black-grass [22]": {"test_system": "black-grass", "test": "Test Example 3: weedkilling efficacy through soil treatment; H: black-grass", "outline": "as §1"}, "Italian ryegrass [23]": {"test_system": "Italian ryegrass", "test": "Test Example 4: weedkilling efficacy by foliar treatment; I: Italian ryegrass", "outline": "as §3"}, "barnyard grass [24]": {"test_system": "barnyard grass", "test": "Test Example 2: weedkilling efficacy, growth period weed treatment in the submerged state; A: barnyard grass", "outline": "as §2"}, "fig-leafed goosefoot [25]": {"test_system": "fig-leafed goosefoot", "test": "Test Example 3: weedkilling efficacy through soil treatment; M: fig-leafed goosefoot", "outline": "as §1"}, "Indian mallow [26]": {"test_system": "Indian mallow", "test": "Test Example 3: weedkilling efficacy through soil treatment; K: Indian mallow", "outline": "as §1"}, "barnyard grass [27]": {"test_system": "barnyard grass", "test": "Test Example 3: weedkilling efficacy through soil treatment; F: barnyard grass", "outline": "as §1"}, "bulrush [28]": {"test_system": "bulrush", "test": "Test Example 2: weedkilling efficacy, growth period weed treatment in the submerged state; B: bulrush", "outline": "as §2"}, "redroot pigweed [29]": {"test_system": "redroot pigweed", "test": "Test Example 3: weedkilling efficacy through soil treatment; L: redroot pigweed", "outline": "as §1"}, "wheat [30]": {"test_system": "wheat", "test": "Test Example 4: foliar treatment, effect on crop; e: wheat", "outline": "as §3"}, "barnyard grass [31]": {"test_system": "barnyard grass", "test": "Test Example 1: weedkilling efficacy, preemergent weed treatment in the submerged state; A: barnyard grass", "outline": "(§4)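 Submerged pre-emergence treatment, water-surface application of compound emulsion at g/ha dosages; 4 cm flooded alluvial soil, weeds sown and 2.5-leaf rice transplanted same day. Rated after 3 weeks, greenhouse.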"}, "wheat [32]": {"test_system": "wheat", "test": "Test Example 3: soil treatment, effect on crop; e: wheat", "outline": "as §1"}, "oval-leafed pondweed [33]": {"test_system": "oval-leafed pondweed", "test": "Test Example 1: weedkilling efficacy, preemergent weed treatment in the submerged state; C: oval-leafed pondweed", "outline": "as §4"}, "green foxtail [34]": {"test_system": "green foxtail", "test": "Test Example 4: weedkilling efficacy by foliar treatment; E: green foxtail", "outline": "as §3"}, "chickweed [35]": {"test_system": "chickweed", "test": "Test Example 3: weedkilling efficacy through soil treatment; N: chickweed", "outline": "as §1"}, "soybean [36]": {"test_system": "soybean", "test": "Test Example 3: soil treatment, effect on crop; d: soybean", "outline": "as §1"}, "transplanted rice": {"test_system": "transplanted rice", "test": "Test Example 1: preemergent weed treatment in the submerged state, effect on crop; a: transplanted rice", "outline": "as §4"}, "bulrush [37]": {"test_system": "bulrush", "test": "Test Example 1: weedkilling efficacy, preemergent weed treatment in the submerged state; B: bulrush", "outline": "as §4"}, "common wind-grass [38]": {"test_system": "common wind-grass", "test": "Test Example 3: weedkilling efficacy through soil treatment; J: common wind-grass", "outline": "as §1"}, "catchweed [39]": {"test_system": "catchweed", "test": "Test Example 4: weedkilling efficacy by foliar treatment; O: catchweed", "outline": "as §3"}, "Italian ryegrass [40]": {"test_system": "Italian ryegrass", "test": "Test Example 3: weedkilling efficacy through soil treatment; I: Italian ryegrass", "outline": "as §1"}, "chickweed [41]": {"test_system": "chickweed", "test": "Test Example 4: weedkilling efficacy by foliar treatment; N: chickweed", "outline": "as §3"}, "birds-eye speedwell": {"test_system": "birds-eye speedwell", "test": "Test Example 4: weedkilling efficacy by foliar treatment; p: birds-eye speedwell", "outline": "as §3"}, "rapeseed [42]": {"test_system": "rapeseed", "test": "Test Example 4: foliar treatment, effect on crop; g: rapeseed", "outline": "as §3"}}}
{"smiles": "CC1=C(c2ccccc2)C(=O)N(C(C)(C)C(=O)Nc2cc(C(F)(F)F)cc(C)n2)CO1", "note": "[B-2-51]", "values": [{"measurement": "g (rapeseed) effect on crop grade", "setting": "rapeseed [1]", "result": "2 (weed kill ratio 20% or more, less than 40%)"}, {"measurement": "C (oval-leafed pondweed) weedkilling efficacy grade", "setting": "oval-leafed pondweed [2]", "result": "5 (weed kill ratio 90% or more, (practically complete withering))"}, {"measurement": "H (black-grass) weedkilling efficacy grade", "setting": "black-grass [3]", "result": "5 (weed kill ratio 90% or more, (practically complete withering))"}, {"measurement": "E (green foxtail) weedkilling efficacy grade", "setting": "green foxtail [4]", "result": "5 (weed kill ratio 90% or more, (practically complete withering))"}, {"measurement": "J (common wind-grass) weedkilling efficacy grade", "setting": "common wind-grass [5]", "result": "5 (weed kill ratio 90% or more, (practically complete withering))"}, {"measurement": "c (corn) effect on crop grade", "setting": "corn [6]", "result": "1 (weed kill ratio 5% or more, less than 20%)"}, {"measurement": "b (directly sown rice) effect on crop grade", "setting": "directly sown rice [7]", "result": "3 (weed kill ratio 40% or more, less than 70%)"}, {"measurement": "f (beet) effect on crop grade", "setting": "beet [8]", "result": "4 (weed kill ratio 70% or more, less than 90%)"}, {"measurement": "D (crabgrass) weedkilling efficacy grade", "setting": "crabgrass [9]", "result": "5 (weed kill ratio 90% or more, (practically complete withering))"}, {"measurement": "G (wild oat) weedkilling efficacy grade", "setting": "wild oat [10]", "result": "5 (weed kill ratio 90% or more, (practically complete withering))"}, {"measurement": "b (directly sown rice) effect on crop grade", "setting": "directly sown rice [11]", "result": "4 (weed kill ratio 70% or more, less than 90%)"}, {"measurement": "D (crabgrass) weedkilling efficacy grade", "setting": "crabgrass [12]", "result": "5 (weed kill ratio 90% or more, (practically complete withering))"}, {"measurement": "M (fig-leafed goosefoot) weedkilling efficacy grade", "setting": "fig-leafed goosefoot [13]", "result": "4 (weed kill ratio 70% or more, less than 90%)"}, {"measurement": "F (barnyard grass) weedkilling efficacy grade", "setting": "barnyard grass [14]", "result": "5 (weed kill ratio 90% or more, (practically complete withering))"}, {"measurement": "O (catchweed) weedkilling efficacy grade", "setting": "catchweed [15]", "result": "3 (weed kill ratio 40% or more, less than 70%)"}, {"measurement": "K (Indian mallow) weedkilling efficacy grade", "setting": "Indian mallow [16]", "result": "4 (weed kill ratio 70% or more, less than 90%)"}, {"measurement": "c (corn) effect on crop grade", "setting": "corn [17]", "result": "0 (weed kill ratio 5% or less (practically no effect))"}, {"measurement": "d (soybean) effect on crop grade", "setting": "soybean [18]", "result": "3 (weed kill ratio 40% or more, less than 70%)"}, {"measurement": "f (beet) effect on crop grade", "setting": "beet [19]", "result": "4 (weed kill ratio 70% or more, less than 90%)"}, {"measurement": "G (wild oat) weedkilling efficacy grade", "setting": "wild oat [20]", "result": "5 (weed kill ratio 90% or more, (practically complete withering))"}, {"measurement": "L (redroot pigweed) weedkilling efficacy grade", "setting": "redroot pigweed [21]", "result": "4 (weed kill ratio 70% or more, less than 90%)"}, {"measurement": "H (black-grass) weedkilling efficacy grade", "setting": "black-grass [22]", "result": "5 (weed kill ratio 90% or more, (practically complete withering))"}, {"measurement": "I (Italian ryegrass) weedkilling efficacy grade", "setting": "Italian ryegrass [23]", "result": "5 (weed kill ratio 90% or more, (practically complete withering))"}, {"measurement": "A (barnyard grass) weedkilling efficacy grade", "setting": "barnyard grass [24]", "result": "5 (weed kill ratio 90% or more, (practically complete withering))"}, {"measurement": "M (fig-leafed goosefoot) weedkilling efficacy grade", "setting": "fig-leafed goosefoot [25]", "result": "4 (weed kill ratio 70% or more, less than 90%)"}, {"measurement": "K (Indian mallow) weedkilling efficacy grade", "setting": "Indian mallow [26]", "result": "2 (weed kill ratio 20% or more, less than 40%)"}, {"measurement": "F (barnyard grass) weedkilling efficacy grade", "setting": "barnyard grass [27]", "result": "5 (weed kill ratio 90% or more, (practically complete withering))"}, {"measurement": "B (bulrush) weedkilling efficacy grade", "setting": "bulrush [28]", "result": "5 (weed kill ratio 90% or more, (practically complete withering))"}, {"measurement": "L (redroot pigweed) weedkilling efficacy grade", "setting": "redroot pigweed [29]", "result": "4 (weed kill ratio 70% or more, less than 90%)"}, {"measurement": "e (wheat) effect on crop grade", "setting": "wheat [30]", "result": "1 (weed kill ratio 5% or more, less than 20%)"}, {"measurement": "A (barnyard grass) weedkilling efficacy grade", "setting": "barnyard grass [31]", "result": "5 (weed kill ratio 90% or more, (practically complete withering))"}, {"measurement": "e (wheat) effect on crop grade", "setting": "wheat [32]", "result": "0 (weed kill ratio 5% or less (practically no effect))"}, {"measurement": "C (oval-leafed pondweed) weedkilling efficacy grade", "setting": "oval-leafed pondweed [33]", "result": "5 (weed kill ratio 90% or more, (practically complete withering))"}, {"measurement": "E (green foxtail) weedkilling efficacy grade", "setting": "green foxtail [34]", "result": "5 (weed kill ratio 90% or more, (practically complete withering))"}, {"measurement": "N (chickweed) weedkilling efficacy grade", "setting": "chickweed [35]", "result": "4 (weed kill ratio 70% or more, less than 90%)"}, {"measurement": "d (soybean) effect on crop grade", "setting": "soybean [36]", "result": "0 (weed kill ratio 5% or less (practically no effect))"}, {"measurement": "a (transplanted rice) effect on crop grade", "setting": "transplanted rice", "result": "0 (weed kill ratio 5% or less (practically no effect))"}, {"measurement": "B (bulrush) weedkilling efficacy grade", "setting": "bulrush [37]", "result": "5 (weed kill ratio 90% or more, (practically complete withering))"}, {"measurement": "J (common wind-grass) weedkilling efficacy grade", "setting": "common wind-grass [38]", "result": "5 (weed kill ratio 90% or more, (practically complete withering))"}, {"measurement": "O (catchweed) weedkilling efficacy grade", "setting": "catchweed [39]", "result": "4 (weed kill ratio 70% or more, less than 90%)"}, {"measurement": "I (Italian ryegrass) weedkilling efficacy grade", "setting": "Italian ryegrass [40]", "result": "5 (weed kill ratio 90% or more, (practically complete withering))"}, {"measurement": "N (chickweed) weedkilling efficacy grade", "setting": "chickweed [41]", "result": "4 (weed kill ratio 70% or more, less than 90%)"}, {"measurement": "P (birds-eye speedwell) weedkilling efficacy grade", "setting": "birds-eye speedwell", "result": "4 (weed kill ratio 70% or more, less than 90%)"}, {"measurement": "g (rapeseed) effect on crop grade", "setting": "rapeseed [42]", "result": "3 (weed kill ratio 40% or more, less than 70%)"}]}
